Values quoted from earlier work, collected in patent US6362158B1, “Multi-phase clear fabric softening composition” (Colgate-Palmolive Co., priority 2000, dated 2002).
Values joined by “and” are separate entries in the source; they are usually repeats but may differ in a detail not shown here. Equal values may be shown once.

conditions: solvent; logarithm to base 10 of P

Row | Compound | log P (octanol/water partition coefficient)
1 | OCCCCO [1-4 Butanediol] | (log P = −1.3)
2 | CCCOC(C)COC(C)CO (centres unmarked) [DPnP, dipropylene glycol n-propyl ether] | 0.99)^2
3 | CCCCCCCCCCO [Decanol] | 3.32)
4 | CCCCCCCCO [Octanol] | 3.15)
5 | CCCCCO [Pentanol] | 1.3
6 | CCCCOC(C)COC(C)COC(C)CO (centres unmarked) [TPnB, tripropylene glycol n-butyl ether] | 1.896 and 1.9
7 | CC(C)C(O)C(C)(C)CO (centres unmarked) [Trimethyl Pentanediol] | 1.24

same assay, conditions: solvent; logarithm to base 10 of P; listed as dipropylene glycol n-propyl ether

Row | Compound | log P (octanol/water partition coefficient)
8 | CCCOC(C)COC(C)CO (centres unmarked) [DPnP, dipropylene glycol n-propyl ether] | 0.994
